Test results as given in ChEMBL document CHEMBL3039007, “Structure-based identification of OATP1B1/3 inhibitors” (Mol Pharmacol, 2013).

How the values were obtained:
[1] = biological target: T1, Solute carrier organic anion transporter family member 1B1 (Homo sapiens, UniProt Q9Y6L6); details: chinese hamster, cho, 10 µM
T1 sequence (Q9Y6L6 whole entry): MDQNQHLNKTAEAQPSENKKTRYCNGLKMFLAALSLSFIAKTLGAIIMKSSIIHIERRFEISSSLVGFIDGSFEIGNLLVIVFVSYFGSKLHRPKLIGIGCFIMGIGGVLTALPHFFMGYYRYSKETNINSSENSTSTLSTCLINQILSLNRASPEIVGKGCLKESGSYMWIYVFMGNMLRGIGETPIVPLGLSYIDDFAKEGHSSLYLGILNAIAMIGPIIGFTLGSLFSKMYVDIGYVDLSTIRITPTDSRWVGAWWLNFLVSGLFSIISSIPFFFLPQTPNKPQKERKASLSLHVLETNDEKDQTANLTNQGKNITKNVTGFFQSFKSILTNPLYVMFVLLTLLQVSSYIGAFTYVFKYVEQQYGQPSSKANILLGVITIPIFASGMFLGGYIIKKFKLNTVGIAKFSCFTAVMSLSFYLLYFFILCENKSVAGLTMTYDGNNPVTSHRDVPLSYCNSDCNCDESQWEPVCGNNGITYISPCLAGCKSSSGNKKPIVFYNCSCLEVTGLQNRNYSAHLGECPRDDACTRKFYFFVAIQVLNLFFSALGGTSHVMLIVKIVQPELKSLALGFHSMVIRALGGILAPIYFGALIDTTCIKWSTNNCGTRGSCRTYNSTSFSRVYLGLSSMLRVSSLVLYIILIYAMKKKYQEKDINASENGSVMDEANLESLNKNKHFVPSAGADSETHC

[2] = biological target: T2, Solute carrier organic anion transporter family member 1B3 (Homo sapiens, UniProt Q9NPD5); details: chinese hamster, cho, 10 µM
T2 sequence (Q9NPD5 whole entry): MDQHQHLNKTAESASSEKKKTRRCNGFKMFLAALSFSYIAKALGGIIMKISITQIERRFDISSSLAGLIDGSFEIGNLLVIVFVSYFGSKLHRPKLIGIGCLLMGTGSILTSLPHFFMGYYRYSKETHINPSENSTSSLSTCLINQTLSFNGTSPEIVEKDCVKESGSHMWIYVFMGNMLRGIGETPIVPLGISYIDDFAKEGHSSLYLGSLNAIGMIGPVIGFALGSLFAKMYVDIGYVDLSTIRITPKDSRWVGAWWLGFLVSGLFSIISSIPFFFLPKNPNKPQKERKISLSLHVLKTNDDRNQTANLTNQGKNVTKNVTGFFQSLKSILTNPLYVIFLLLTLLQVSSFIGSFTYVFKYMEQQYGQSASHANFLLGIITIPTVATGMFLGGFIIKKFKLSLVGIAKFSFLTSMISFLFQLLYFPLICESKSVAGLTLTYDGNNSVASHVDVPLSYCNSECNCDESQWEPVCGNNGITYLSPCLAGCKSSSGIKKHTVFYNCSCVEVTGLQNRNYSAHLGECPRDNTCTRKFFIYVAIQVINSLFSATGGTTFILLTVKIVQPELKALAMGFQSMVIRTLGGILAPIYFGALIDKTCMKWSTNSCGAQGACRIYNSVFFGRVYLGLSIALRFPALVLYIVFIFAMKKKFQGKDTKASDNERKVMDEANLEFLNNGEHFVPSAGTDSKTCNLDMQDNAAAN

Row | residual activity [1] [%] | residual activity [2] [%] | Structure (SMILES)
1 | 28.54 | 49.62 | COC(=O)C[C@H]1C(C)(C)C2(O)OC34CC2C(=O)[C@]1(C)C3CC[C@]1(C)C4=CC(=O)O[C@H]1c1ccoc1 (stereo partly drawn) [8beta-HYDROXYCARAPIN, 3,8-HEMIACETAL]
2 | 94.3 | 32.28 | COc1cc(C)c2c(c1C=O)Oc1c(c(C)c(O)c3c1C(O)OC3=O)OC2=O (configuration not stated) [STICTIC ACID]
3 | 84.51 | 29.02 | COc1c2ccoc2c(OC)c2oc(=O)ccc12 [ISOPIMPINELLIN]
4 | 38.44 | 77.52 | CC(COc1ccccc1)NC(C)C(O)c1ccc(O)cc1.Cl (configuration not stated) [ISOXSUPRINE HYDROCHLORIDE]
5 | 84.25 | 95.92 | Cc1nnc(SCC2=C(C(=O)[O-])N3C(=O)[C@@H](NC(=O)Cn4cnnn4)[C@H]3SC2)s1.[Na+] [CEFAZOLIN SODIUM]
6 | 49.56 | 94.63 | C=CC1=C(C)c2cc3[nH]c(cc4nc(cc5[nH]c(cc1n2)c(C)c5CCC(=O)O)C(CCC(=O)O)=C4C)c(C)c3C=C [PROTOPORPHYRIN]
7 | 47.72 | 77.78 | CC(C(=O)O)c1ccc2c(c1)[nH]c1ccc(Cl)cc12 (configuration not stated) [CARPROFEN]
8 | 74.42 | 93.16 | CCCC(=O)Nc1ccc(OCC(O)CNC(C)C)c(C(C)=O)c1.Cl (configuration not stated) [ACEBUTOLOL HYDROCHLORIDE]
9 | 80.37 | 77.92 | Oc1cc(O)c2c(c1)O[C@H](c1ccc(O)c(O)c1)[C@H](O)C2 [(-)-EPICATECHIN]
10 | 97.2 | 96.18 | CC(C(=O)O)c1ccc(N2Cc3ccccc3C2=O)cc1 (configuration not stated) [INDOPROFEN]
11 | 68.02 | 74.75 | CC1(C)C(=O)[C@@H]2O[C@@H]2[C@]2(C)[C@H]3CC[C@@]4(C)[C@H](c5ccoc5)OC(=O)[C@H]5O[C@]54[C@]3(C)C(=O)C[C@@H]12
12 | 70.81 | 81.81 | C[C@]12C=CC(=O)C=C1CC[C@H]1[C@@H]3C[C@@H](O)[C@](O)(C(=O)CO)[C@@]3(C)C[C@H](O)[C@@]12F [TRIAMCINOLONE]
13 | 122.9 | 109.7 | COC(=O)c1c(C)cc(OC(=O)c2c(C)cc(O)c(C=O)c2O)c(C)c1O [ATRANORIN]
14 | 91.33 | 77.16 | CC[C@H]1OC(=O)[C@H](C)[C@@H](O[C@H]2C[C@@](C)(OC)[C@@H](O)[C@H](C)O2)[C@H](C)[C@@H](O[C@@H]2O[C@H](C)C[C@H](N(C)C)[C@H]2O)[C@](C)(O)C[C@@H](C)/C(=N\OCOCCOC)[C@H](C)[C@@H](O)[C@]1(C)O [ROXITHROMYCIN]
15 | 103.9 | 102.5 | O=C(/C=C/c1ccc(O)c(O)c1)O[C@H](Cc1ccc(O)c(O)c1)C(=O)O [ROSMARINIC ACID]
16 | 129.2 | 99.16 | CC1(C)O[C@@H]2C[C@H]3[C@@H]4C[C@H](F)C5=CC(=O)CC[C@]5(C)[C@H]4[C@@H](O)C[C@]3(C)[C@]2(C(=O)CO)O1 [FLURANDRENOLIDE]
17 | 132 | 113.9 | Cl.c1ccc2c(c1)CN1CCCC1=N2 [DESOXYPEGANINE HYDROCHLORIDE]

Row | Structure (SMILES) | residual activity [1] [%] | residual activity [2] [%]
18 | COS(C)(=O)=O [METHANESULFONIC ACID METHYL ESTER] | 57.02 | 79.48
19 | CC(=O)O[C@H]1CC[C@@]2(C)[C@@H](CC[C@@H]3[C@@H]2CC(=O)[C@]2(C)[C@@H]4[C@H](C[C@@H]32)O[C@]2(CC[C@@H](C)CO2)[C@H]4C)C1 [HECOGENIN ACETATE] | 103.5 | 102
20 | Nc1nc(N)c2nc(CNc3ccc(C(=O)N[C@@H](CCC(=O)O)C(=O)O)cc3)cnc2n1 [AMINOPTERIN] | 89.56 | 124.5
21 | CCCC(CCC)C(=O)[O-].[Na+] [VALPROATE SODIUM] | 90.61 | 125.1
